Laboratory results taken from ChEMBL document CHEMBL5338791, “Discovery of Novel 1,3-Diphenylpyrazine Derivatives as Potent S-Phase Kinase-Associated Protein 2 (Skp2) Inhibitors for the Treatment of Cancer” (J Med Chem, 2023).
Active and inactive are the calls of the source. The calls are words filed in the database; no cut-off is given here.

Assays:
[1] = test system: MGC-803; assay: Antitumor activity against human MGC-803 cells xenografted in NOD-SCID mouse model assessed as p27 accumulation at 10 to 50 mg/kg, IG administered once every 2 days for 21 days by Western blot analysis; format: functional, organism-based; conditions: dose 10-50 mg/kg, time 21.0 day
[2] = test system: PC-3; assay: Induction of cell cycle arrest in human PC-3 cells assessed as accumulation of cells at G2 phase at 10 uM incubated for 24 hrs by flow cytometry (reference value: 19.34 %); format: functional
[3] = test system: PC-3; assay: Induction of apoptosis in human PC-3 cells assessed as late apoptotic cells at 10 uM incubated for 48 hrs by annexin V-FITC/PI staining based flow cytometry (reference value: 0.45 %); format: functional
[4] = test system: PC-3; assay: Antitumor activity against human PC-3 cells xenografted in NOD-SCID mouse model assessed as p27 accumulation at 10 to 50 mg/kg, IG administered once every 2 days for 21 days by Western blot analysis; format: functional, organism-based; conditions: dose 10-50 mg/kg, time 21.0 day
[5] = test system: MGC-803; assay: Antitumor activity against human MGC-803 cells xenografted in NOD-SCID mouse model assessed as downregulation of Skp2 expression at 10 to 50 mg/kg, IG administered once every 2 days for 21 days by Western blot analysis; format: functional, organism-based; conditions: dose 10-50 mg/kg, time 21.0 day
[6] = test system: MGC-803; assay: Antitumor activity against human MGC-803 cells xenografted in NOD-SCID mouse model assessed as p21 accumulation at 10 to 50 mg/kg, IG administered once every 2 days for 21 days by Western blot analysis; format: functional, organism-based; conditions: dose 10-50 mg/kg, time 21.0 day
[7] = test system: PC-3; assay: Upregulation of p27 level in human PC-3 cells upto 10 uM by Western blot analysis; format: functional, cell-based; conditions: time 48.0 hrs, TDE = time-dependent effect
[8] = Metabolic stability in human liver S9 fraction assessed as half life at 20 umol/L preincubated for 5 mins followed by NADPH addition measured upto 60 mins by LC-MS/MS analysis; format: ADME, subcellular; conditions: dose 20 µmol/L, time < 65 min
[9] = Antitumor activity against human EC1 cells assessed as cell growth inhibition incubated for 72 hrs by MTT assay; format: functional, cell-based; conditions: EC1, 72 h
[10] = test system: PC-3; assay: Induction of apoptosis in human PC-3 cells assessed as late apoptotic cells at 5 uM incubated for 48 hrs by annexin V-FITC/PI staining based flow cytometry (reference value: 0.45 %); format: functional
[11] = test system: PC-3; assay: Induction of apoptosis in human PC-3 cells assessed as nuclear condensation incubated for 48 hrs; format: functional, cell-based; conditions: dose <= 10.0 µM
[12] = Apparent volume of distribution in plasma of NOD-SCID mouse model xenografted with human PC-3 cells at 25 mg/kg, IG measured upto 48 hrs by LC-MS/MS analysis; format: ADME, organism-based; conditions: in vivo, po
[13] = test system: PC-3; assay: Induction of cell cycle arrest in human PC-3 cells assessed as accumulation of cells at G2 phase at 2.5 uM incubated for 48 hrs by flow cytometry (reference value: 22.59 %); format: functional
[14] = test system: PC-3; assay: Induction of cell cycle arrest in human PC-3 cells assessed as accumulation of cells at S phase at 10 uM incubated for 12 hrs by flow cytometry (reference value: 19.7 %); format: functional
[15] = test system: PC-9; assay: Antitumor activity against human PC-9 cells overexpressing Skp2 assessed as cell growth inhibition incubated for 72 hrs by MTT assay; format: functional, cell-based; conditions: PC-9, 72 h
[16] = test system: MGC-803; assay: Induction of cell cycle arrest in human MGC-803 cells assessed as accumulation of cells at G2 phase at 10 uM incubated for 48 hrs by flow cytometry (reference value: 20.64 %); format: functional
[17] = test system: MGC-803; assay: Induction of cell cycle arrest in human MGC-803 cells assessed as accumulation of cells at G1 phase at 10 uM incubated for 48 hrs by flow cytometry (reference value: 54.46 %); format: functional
[18] = Half life in tumor of NOD-SCID mouse model xenografted with human PC-3 cells at 25 mg/kg, IG measured upto 48 hrs by LC-MS/MS analysis; format: ADME, organism-based, Neoplasm; conditions: po
[19] = test system: MGC-803; assay: Induction of cell cycle arrest in human MGC-803 cells assessed as accumulation of cells at S phase at 10 uM incubated for 36 hrs by flow cytometry (reference value: 20.41 %); format: functional
[20] = test system: MGC-803; assay: Induction of cell cycle arrest in human MGC-803 cells assessed as accumulation of cells at S phase at 10 uM incubated for 6 hrs by flow cytometry (reference value: 20.41 %); format: functional
[21] = test system: PC-3; assay: Induction of apoptosis in human PC-3 cells assessed as early apoptotic cells at 10 uM incubated for 48 hrs by annexin V-FITC/PI staining based flow cytometry (reference value: 0.85 %); format: functional
[22] = Metabolic stability in rat liver microsome assessed as half life at 20 umol/L preincubated for 5 mins followed by NADPH addition measured upto 60 mins by LC-MS/MS analysis; format: ADME; conditions: liver microsomes, dose 20 µmol/L, time < 65 min
[23] = Toxicity in mouse assessed as decrease in total protein level at 10 to 50 mg/kg; format: organism-based; conditions: in vivo, dose 10-50 mg/kg
[24] = test system: MGC-803; assay: Induction of apoptosis in human MGC-803 cells assessed as early apoptotic cells at 2.5 uM incubated for 48 hrs by annexin V-FITC/PI staining based flow cytometry (reference value: 0.21 %); format: functional
[25] = test system: MGC-803; assay: Induction of cell cycle arrest in human MGC-803 cells assessed as accumulation of cells at G1 phase at 10 uM incubated for 24 hrs by flow cytometry (reference value: 57.09 %); format: functional
[26] = test system: MGC-803; assay: Induction of apoptosis in human MGC-803 cells assessed as necrotic cells at 2.5 uM incubated for 48 hrs by annexin V-FITC/PI staining based flow cytometry (reference value: 0.89 %); format: functional
[27] = test system: PC-3; assay: Induction of cell cycle arrest in human PC-3 cells assessed as accumulation of cells at S phase at 2.5 uM incubated for 48 hrs by flow cytometry (reference value: 22.44 %); format: functional
[28] = test system: MGC-803; assay: Induction of apoptosis in human MGC-803 cells assessed as late apoptotic cells at 10 uM incubated for 48 hrs by annexin V-FITC/PI staining based flow cytometry (reference value: 0.95 %); format: functional
[29] = Cmax in tumor of NOD-SCID mouse model xenografted with human PC-3 cells at 25 mg/kg, IG measured upto 48 hrs by LC-MS/MS analysis; format: ADME, organism-based, Neoplasm; design: time < 48 hrs, dose 25 mg/kg, route ig; conditions: po
[30] = test system: MGC-803; assay: Induction of apoptosis in human MGC-803 cells assessed as viable cells at 5 uM incubated for 48 hrs by annexin V-FITC/PI staining based flow cytometry (reference value: 98 %); format: functional; conditions: read-out: Activity
[31] = test system: MGC-803; assay: Induction of cell cycle arrest in human MGC-803 cells assessed as accumulation of cells at G2 phase at 5 uM incubated for 48 hrs by flow cytometry (reference value: 21.35 %); format: functional
[32] = test system: PC-3; assay: Downregulation of Skp2 level in human PC-3 cells incubated for 48 hrs by Western blot analysis; format: functional, cell-based; conditions: dose <= 10.0 µM
[33] = test system: PC-3; assay: Induction of cell cycle arrest in human PC-3 cells assessed as accumulation of cells at G1 phase at 10 uM incubated for 36 hrs by flow cytometry (reference value: 56.81 %); format: functional
[34] = Metabolic stability in mouse liver S9 fraction assessed as half life at 20 umol/L preincubated for 5 mins followed by NADPH addition measured upto 60 mins by LC-MS/MS analysis; format: ADME, subcellular; conditions: dose 20 µmol/L, time < 65 min
[35] = test system: MGC-803; assay: Downregulation of Skp2 level in human MGC-803 cells incubated for 48 hrs by Western blot analysis; format: functional, cell-based; conditions: dose <= 10.0 µM

half-life at 20 µM [8]: 64.8 min | Vz [12]: 143.3 L/kg | IC50 [15]: 8.1 µM | half-life [18]: 756 min | half-life at 20 µM [22]: 16.3 min | Cmax [29]: 182 ng/g | half-life at 20 µM [34]: 16.5 min
Structure (SMILES): O=C(CCl)NC1CCN(c2cnc(-c3ccccc3)c(-c3ccccc3)n2)CC1
Activity [1]: Active | Activity [2]: 15.19% | Activity [3]: 27.9% | Activity [4]: Active | Activity [5]: Active | Activity [6]: Active | Activity [7]: Tde | IC50 [9]: 7 µM | Activity [10]: 12% | Activity [11]: Dose-Dependent Effect | Activity [13]: 18.47% | Activity [14]: 32.51% | Activity [16]: 21.86% | Activity [17]: 39.31% | Activity [19]: 42.29% | Activity [20]: 29.93% | Activity [21]: 0.2% | Activity [23]: Toxic | Activity [24]: 2.85% | Activity [25]: 44.68% | Activity [26]: 1.02% | Activity [27]: 29.96% | Activity [28]: 24.9% | viability at 5 µM [30]: 82.9% | Activity [31]: 18.74% | Activity [32]: Dose-Dependent Effect | Activity [33]: 33.46% | Activity [35]: Dose-Dependent Effect
